Test results as given in US8828985B2, “Carbamate and urea inhibitors of 11-beta-hydroxysteroid dehydrogenase 1” (Vitae Pharmaceuticals, Inc., priority 2008, dated 2014).

Biological target: human 11β-HSD1 (Homo sapiens, UniProt P28845)
Experiment: biochemical
Settings: for inhibition at 0.1 µM: 1.5 h, read-out: Biological Test Example 2 Average % inhibition at 100 nm, at 100 nm; for IC50: Biological Test Example 2 IC50 Range, microsomes from CHO cells overexpressing human 11β-HSD1, SPA
Procedure: All reactions are carried out at room temperature in 96 well clear flexible PET Microbeta plates (PerkinElmer). […] The reaction is stopped by adding 50 μl of the SPA beads suspension containing 10 μM 18β-glycyrrhetinic acid, 5 mg/ml protein A coated YSi SPA beads (GE Healthcare) and 3.3 μg/ml of anti-cortisol antibody (East Coast Biologics) in Superblock buffer (Bio-Rad). The plates are then shaken for 120 minutes at room temperature, and the SPA signal corresponding to [^3H]cortisol is measured on a Microbeta plate reader.

human 11β-HSD1, sequence (P28845 whole entry): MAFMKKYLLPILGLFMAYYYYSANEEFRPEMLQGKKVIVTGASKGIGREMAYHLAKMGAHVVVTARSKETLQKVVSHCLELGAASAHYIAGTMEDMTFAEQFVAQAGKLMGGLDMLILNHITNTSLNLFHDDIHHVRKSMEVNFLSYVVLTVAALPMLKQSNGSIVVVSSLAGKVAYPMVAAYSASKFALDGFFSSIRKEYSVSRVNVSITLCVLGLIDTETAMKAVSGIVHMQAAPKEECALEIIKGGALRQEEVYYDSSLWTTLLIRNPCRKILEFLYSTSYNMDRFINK

Row | Structure (SMILES) | inhibition at 0.1 µM | IC50
1 | N#Cc1cncc(N[C@@H]2CCN(C(=O)O[C@H]3C4CC5CC3C[C@](O)(C5)C4)C2)n1 [Example 81, (R)-(trans-1-hydroxy-4-adamantyl) 3-(6-cyanopyrazin-2-ylamino)pyrrolidine-1-carboxylate] | 54.4% | < 100 nM
2 | N#Cc1cnc(N[C@@H]2CCN(C(=O)O[C@H]3C4CC5CC3C[C@](O)(C5)C4)C2)s1 [Example 82, (R)-(trans-1-hydroxy-4-adamantyl) 3-(5-cyanothiazol-2-ylamino)pyrrolidine-1-carboxylate] | 86.6% | < 100 nM
3 | Cc1ccc(C#N)c(N[C@@H]2CCN(C(=O)O[C@H]3C4CC5CC3C[C@](O)(C5)C4)C2)n1 [Example 83, (R)-(trans-1-hydroxy-4-adamantyl) 3-(3-cyano-6-methylpyridin-2-ylamino)pyrrolidine-1-carboxylate] | 98.5% | < 100 nM
4 | Cc1nc(N[C@@H]2CCN(C(=O)O[C@H]3C4CC5CC3C[C@](O)(C5)C4)C2)ccc1C#N [Example 84, (R)-(trans-1-hydroxy-4-adamantyl) 3-(5-cyano-6-methylpyridin-2-ylamino)pyrrolidine-1-carboxylate] | 71.6% | < 100 nM
5 | O=C(O[C@H]1C2CC3CC1C[C@](O)(C3)C2)N1CC[C@@H](Nc2ncnc3ccccc23)C1 [Example 85, (R)-(trans-1-hydroxy-4-adamantyl) 3-(quinazolin-4-ylamino)pyrrolidine-1-carboxylate] | 64% | < 100 nM
6 | N#Cc1cc(Cl)cnc1N[C@@H]1CCN(C(=O)O[C@H]2C3CC4CC2C[C@](O)(C4)C3)C1 [Example 86, (R)-(trans-1-hydroxy-4-adamantyl) 3-(5-chloro-3-cyanopyridin-2-ylamino)pyrrolidine-1-carboxylate] | 101% | < 100 nM
7 | N#Cc1cnc(N[C@@H]2CCN(C(=O)O[C@H]3C4CC5CC3C[C@](O)(C5)C4)C2)c(Cl)c1 [Example 87, (R)-(trans-1-hydroxy-4-adamantyl) 3-(3-chloro-5-cyanopyridin-2-ylamino)pyrrolidine-1-carboxylate] | 100% | < 100 nM
8 | Cc1nccc2nc(N[C@@H]3CCN(C(=O)O[C@H]4C5CC6CC4C[C@](O)(C6)C5)C3)ccc12 [Example 88, (R)-(trans-1-hydroxy-4-adamantyl) 3-(5-methyl-1,6-naphthyridin-2-ylamino)pyrrolidine-1-carboxylate] | 69.4% | < 100 nM
9 | CN(C)C(=O)c1cccnc1N[C@@H]1CCN(C(=O)O[C@H]2C3CC4CC2C[C@](O)(C4)C3)C1 [Example 89, (R)-(trans-1-hydroxy-4-adamantyl) 3-(3-(dimethylcarbamoyl)pyridin-2-ylamino)pyrrolidine-1-carboxylate] | 39.1% | > 100 nM
10 | N#Cc1ccc2nc(N[C@@H]3CCN(C(=O)O[C@H]4C5CC6CC4C[C@](O)(C6)C5)C3)ccc2c1 [Example 90, (R)-(trans-1-hydroxy-4-adamantyl) 3-(6-cyanoquinolin-2-ylamino)pyrrolidine-1-carboxylate] | 95.6% | < 100 nM
11 | N#Cc1ccc2nc(N[C@@H]3CCN(C(=O)O[C@H]4C5CC6CC4C[C@](O)(C6)C5)C3)cnc2c1 [Example 91, (R)-(trans-1-hydroxy-4-adamantyl) 3-(6-cyanoquinoxalin-2-ylamino)pyrrolidine-1-carboxylate] | 63.6% | < 100 nM
12 | NC(=O)c1cnc(N[C@@H]2CCN(C(=O)O[C@H]3C4CC5CC3C[C@](O)(C5)C4)C2)c(Cl)c1 [Example 92, (R)-(trans-1-hydroxy-4-adamantyl) 3-(5-carbamoyl-3-chloropyridin-2-ylamino)pyrrolidine-1-carboxylate] | 60.2% | < 100 nM
13 | O=C(O[C@H]1C2CC3CC1C[C@](O)(C3)C2)N1CC[C@@H](Nc2ncc(Cl)cc2[N+](=O)[O-])C1 [Example 93, (R)-(trans-1-hydroxy-4-adamantyl) 3-(5-chloro-3-nitropyridin-2-ylamino)pyrrolidine-1-carboxylate] |  | < 100 nM
14 | N#Cc1ccc2nc(N[C@@H]3CCN(C(=O)O[C@H]4C5CC6CC4C[C@](O)(C6)C5)C3)sc2c1 [Example 94, (R)-(trans-1-hydroxy-4-adamantyl) 3-(6-cyanobenzo[d]thiazol-2-ylamino)pyrrolidine-1-carboxylate] | 90.8% | < 100 nM
15 | O=C(O[C@H]1C2CC3CC1C[C@](O)(C3)C2)N1CC[C@@H](Nc2ccc3cc(Cl)ccc3n2)C1 [Example 95, (R)-(trans-1-hydroxy-4-adamantyl) 3-(6-chloroquinolin-2-ylamino)pyrrolidine-1-carboxylate] | 90.6% | < 100 nM
16 | O=C(O[C@H]1C2CC3CC1C[C@](O)(C3)C2)N1CC[C@@H](Nc2cnc3cc(Cl)ccc3n2)C1 [Example 96, (R)-(trans-1-hydroxy-4-adamantyl) 3-(6-chloroquinoxalin-2-ylamino)pyrrolidine-1-carboxylate] | 101% | < 100 nM

Row | Structure (SMILES) | inhibition at 0.1 µM | IC50
17 | O=C(O[C@H]1C2CC3CC1C[C@](O)(C3)C2)N1CC[C@@H](Nc2nc3ccc(Cl)cc3s2)C1 [Example 97, (R)-(trans-1-hydroxy-4-adamantyl) 3-(6-chlorobenzo[d]thiazol-2-ylamino)pyrrolidine-1-carboxylate] | 91.1% | < 100 nM
18 | CNC(=O)c1cc(Cl)cnc1N[C@@H]1CCN(C(=O)O[C@H]2C3CC4CC2C[C@](O)(C4)C3)C1 [Example 98, (R)-(trans-1-hydroxy-4-adamantyl) 3-(5-chloro-3-(methylcarbamoyl)pyridin-2-ylamino)pyrrolidine-1-carboxylate] | 91.1% | < 100 nM
19 | CN(C(=O)c1ccc(N[C@@H]2CCN(C(=O)O[C@H]3C4CC5CC3C[C@](O)(C5)C4)C2)nc1)C(C)(C)C [Example 99, (trans-1-hydroxy-4-adamantyl) 3-(5-(tert-butyl(methyl)carbamoyl)pyridin-2-ylamino)pyrrolidine-1-carboxylate] | 21.8% | > 100 nM
20 | CN(C(=O)c1cccnc1N[C@@H]1CCN(C(=O)O[C@H]2C3CC4CC2C[C@](O)(C4)C3)C1)C(C)(C)C [Example 100, (trans-1-hydroxy-4-adamantyl) 3-(3-(tert-butyl(methyl)carbamoyl)pyridin-2-ylamino)pyrrolidine-1-carboxylate] | 46.8% | < 100 nM
21 | O=C(NC1CC1)c1cc(Cl)cnc1N[C@@H]1CCN(C(=O)O[C@H]2C3CC4CC2C[C@](O)(C4)C3)C1 [Example 101, (R)-(trans-1-hydroxy-4-adamantyl) 3-(5-chloro-3-(cyclopropylcarbamoyl)pyridin-2-ylamino)pyrrolidine-1-carboxylate] | 82.6% | < 100 nM
22 | CC(C)(C)NC(=O)c1cc(Cl)cnc1N[C@@H]1CCN(C(=O)O[C@H]2C3CC4CC2C[C@](O)(C4)C3)C1 [Example 102, (R)-(trans-1-hydroxy-4-adamantyl) 3-(3-(tert-butylcarbamoyl)-5-chloropyridin-2-ylamino)pyrrolidine-1-carboxylate] | 78.7% | < 100 nM
23 | O=C(NC1CC1)c1ccc2nc(N[C@@H]3CCN(C(=O)O[C@H]4C5CC6CC4C[C@](O)(C6)C5)C3)sc2c1 [Example 103, (R)-(trans-1-hydroxy-4-adamantyl) 3-(6-(cyclopropylcarbamoyl)benzo[d]thiazol-2-ylamino)pyrrolidine-1-carboxylate] | 88.8% | < 100 nM
24 | N#Cc1ccc(N[C@@H]2CCN(C(=O)O[C@H]3C[C@H]4CC[C@@H](C3)N4C(N)=O)C2)nc1 [Example 105, (3R)-8-carbamoyl-8-azabicyclo[3.2.1]octan-3-yl 3-(5-cyanopyridin-2-ylamino)pyrrolidine-1-carboxylate] | 14.8% | > 100 nM
25 | CS(=O)(=O)N1C2CCC1CC(NC(=O)N1CC[C@@H](Nc3ccc(C#N)cn3)C1)C2 (stereo partly drawn) [Example 106, (3R)-3-(5-cyanopyridin-2-ylamino)-N-(8-(methylsulfonyl)-8-azabicyclo[3.2.1]octan-3-yl)pyrrolidine-1-carboxamide] | 3.9% | > 100 nM
26 | COC(=O)c1cnc(N[C@@H]2CCN(C(=O)O[C@H]3C4CC5CC3C[C@](O)(C5)C4)C2)nc1 [Example 107, Methyl 2-((R)-1-((trans-1-hydroxy-4-adamantyloxy)carbonyl)pyrrolidin-3-ylamino)pyrimidine-5-carboxylate] |  | < 100 nM
27 | O=C(O)c1cnc(N[C@@H]2CCN(C(=O)O[C@H]3C4CC5CC3C[C@](O)(C5)C4)C2)nc1 [Example 108, 2-((R)-1-((trans-1-hydroxy-4-adamantyloxy)carbonyl)pyrrolidin-3-ylamino)pyrimidine-5-carboxylic acid] | 14.2% | > 100 nM
28 | NC(=O)c1cnc(N[C@@H]2CCN(C(=O)O[C@H]3C4CC5CC3C[C@](O)(C5)C4)C2)nc1 [Example 109, (R)-(trans-1-hydroxy-4-adamantyl) 3-(5-carbamoylpyrimidin-2-ylamino)pyrrolidine-1-carboxylate] | 50.1% | < 100 nM
29 | CNC(=O)c1cnc(N[C@@H]2CCN(C(=O)O[C@H]3C4CC5CC3C[C@](O)(C5)C4)C2)nc1 [Example 110, (R)-(trans-1-hydroxy-4-adamantyl) 3-(5-(methylcarbamoyl)pyrimidin-2-ylamino)pyrrolidine-1-carboxylate] | 32.2% | > 100 nM
30 | CN(C)C(=O)c1cnc(N[C@@H]2CCN(C(=O)O[C@H]3C4CC5CC3C[C@](O)(C5)C4)C2)nc1 [Example 111, (R)-(trans-1-hydroxy-4-adamantyl) 3-(5-(dimethylcarbamoyl)pyrimidin-2-ylamino)pyrrolidine-1-carboxylate] | 33.5% | > 100 nM
31 | O=C(NC1CC1)c1cnc(N[C@@H]2CCN(C(=O)O[C@H]3C4CC5CC3C[C@](O)(C5)C4)C2)nc1 [Example 112, (R)-(trans-1-hydroxy-4-adamantyl) 3-(5-(cyclopropylcarbamoyl)pyrimidin-2-ylamino)pyrrolidine-1-carboxylate] | 33.3% | > 100 nM
